Test results reported in patent publication US5149777A, “Human insulin analogs and preparations containing them” (Novo Nordisk A/S, priority 1991, dated 1992).

Columns and labels:
[1] = target: T1, insulin receptors of isolated rat adipocytes (Rattus norvegicus, UniProt P15127); assay: Binding affinity to insulin receptors of isolated rat adipocytes; settings: relative to semisynthetic human insulin, potency set to 100%
T1 construct: endogenous in cells; host or cells: isolated rat adipocytes
Description: (§1) The biological activity in vitro was determined by measuring the binding affinity to the insulin receptors of isolated rat adipocytes and hepatocytes essentially as described in J. Gliemann, S. Gammeltoft: Diabetologia 10, 105-113 (1974).

[2] = target: insulin receptors of isolated rat hepatocytes (Rattus norvegicus, UniProt P15127)
Chain of insulin receptors of isolated rat hepatocytes (P15127 27-759 limits assumed): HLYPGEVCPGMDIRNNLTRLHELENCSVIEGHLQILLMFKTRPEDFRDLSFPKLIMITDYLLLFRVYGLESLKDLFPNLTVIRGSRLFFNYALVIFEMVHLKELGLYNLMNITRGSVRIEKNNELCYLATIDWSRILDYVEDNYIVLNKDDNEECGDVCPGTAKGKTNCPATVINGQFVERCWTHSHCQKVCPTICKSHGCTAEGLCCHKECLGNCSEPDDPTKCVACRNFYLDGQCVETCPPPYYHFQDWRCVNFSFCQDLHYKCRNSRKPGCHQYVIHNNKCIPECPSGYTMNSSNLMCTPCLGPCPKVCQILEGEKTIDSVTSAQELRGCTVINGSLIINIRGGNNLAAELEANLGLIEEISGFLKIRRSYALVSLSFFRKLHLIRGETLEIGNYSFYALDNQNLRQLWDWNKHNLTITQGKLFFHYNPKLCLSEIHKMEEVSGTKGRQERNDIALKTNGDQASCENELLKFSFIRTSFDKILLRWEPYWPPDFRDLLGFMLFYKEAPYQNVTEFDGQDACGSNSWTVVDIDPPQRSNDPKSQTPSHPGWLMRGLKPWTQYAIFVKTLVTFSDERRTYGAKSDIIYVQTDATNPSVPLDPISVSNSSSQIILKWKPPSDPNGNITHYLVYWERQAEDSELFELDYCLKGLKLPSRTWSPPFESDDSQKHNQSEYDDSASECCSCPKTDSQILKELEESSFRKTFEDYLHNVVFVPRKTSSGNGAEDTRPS
Chain of insulin receptors of isolated rat hepatocytes (P15127 764-1383 partner limits assumed): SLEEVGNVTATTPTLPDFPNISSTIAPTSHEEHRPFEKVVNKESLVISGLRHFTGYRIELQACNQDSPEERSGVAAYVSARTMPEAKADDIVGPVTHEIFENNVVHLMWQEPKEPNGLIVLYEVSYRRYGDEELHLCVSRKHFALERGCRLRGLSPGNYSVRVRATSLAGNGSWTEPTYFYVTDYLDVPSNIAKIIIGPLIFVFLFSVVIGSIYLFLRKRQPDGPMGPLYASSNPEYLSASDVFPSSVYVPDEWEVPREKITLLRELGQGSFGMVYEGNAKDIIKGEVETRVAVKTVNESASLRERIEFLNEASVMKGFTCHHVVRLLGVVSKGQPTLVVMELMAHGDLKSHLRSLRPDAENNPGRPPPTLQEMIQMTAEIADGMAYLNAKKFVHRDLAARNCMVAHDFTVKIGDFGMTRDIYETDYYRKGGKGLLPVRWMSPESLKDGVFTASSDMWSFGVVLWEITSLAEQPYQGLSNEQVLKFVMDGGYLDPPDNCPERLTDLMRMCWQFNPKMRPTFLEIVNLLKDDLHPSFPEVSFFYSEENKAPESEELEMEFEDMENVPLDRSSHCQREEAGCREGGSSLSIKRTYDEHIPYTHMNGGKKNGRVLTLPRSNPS
Description: as §1

T1 sequence (P15127 27-759 limits assumed): as the sequence (P15127 27-759 limits assumed) above
T1 sequence (P15127 764-1383 partner limits assumed): as the sequence (P15127 764-1383 partner limits assumed) above

Substance: [His^B25 ]-human insulin
- Biological activity in vitro (binding affinity), Adipocytes [1]: 150%
- Biological activity in vitro (binding affinity), Hepatocytes [2]: 142%

Substance: [His^B25, Asp^B28 ]-des[Thr^B30 ]-human insulin
- Biological activity in vitro (binding affinity), Adipocytes [1]: 130%
- Biological activity in vitro (binding affinity), Hepatocytes [2]: 135%

Substance: [Tyr^B25 ]-human insulin
- Biological activity in vitro (binding affinity), Adipocytes [1]: 356%
- Biological activity in vitro (binding affinity), Hepatocytes [2]: 222%

Substance: [Tyr^B25, Asp^B28 ]-human insulin
- Biological activity in vitro (binding affinity), Adipocytes [1]: 201%
- Biological activity in vitro (binding affinity), Hepatocytes [2]: 138%
